Assay results published in US12617783B2, “Heterocyclic GLP-1R agonists” (BIOMEA FUSION, INC., priority 2024, dated 2026).

molecular target: T1, human GLP-1R (Homo sapiens, UniProt P43220); assay: GLP-1R cAMP assay (Example B1a, HTRF, 30 min at room temperature); format: cell-based; conditions: cAMP accumulation in HEK293 expressing human GLP-1R, no BETP, 30 min room temperature (Method B1a, compounds ID 1-609), Table 1; read-out: EC50
T1 construct: host or cells: HEK293
Outline: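 Competitive HTRF read-out of cAMP after 30 min room-temperature stimulation, BETP absent, of human GLP-1R-HEK293 cells (1,000/well) in HEPES buffer with 500 μM IBMX and 0.1% BSA. Activation normalised to GLP-1(7-37) positive control. EC50 from 4-parameter non-linear regression.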

T1 sequence (P43220 24-463): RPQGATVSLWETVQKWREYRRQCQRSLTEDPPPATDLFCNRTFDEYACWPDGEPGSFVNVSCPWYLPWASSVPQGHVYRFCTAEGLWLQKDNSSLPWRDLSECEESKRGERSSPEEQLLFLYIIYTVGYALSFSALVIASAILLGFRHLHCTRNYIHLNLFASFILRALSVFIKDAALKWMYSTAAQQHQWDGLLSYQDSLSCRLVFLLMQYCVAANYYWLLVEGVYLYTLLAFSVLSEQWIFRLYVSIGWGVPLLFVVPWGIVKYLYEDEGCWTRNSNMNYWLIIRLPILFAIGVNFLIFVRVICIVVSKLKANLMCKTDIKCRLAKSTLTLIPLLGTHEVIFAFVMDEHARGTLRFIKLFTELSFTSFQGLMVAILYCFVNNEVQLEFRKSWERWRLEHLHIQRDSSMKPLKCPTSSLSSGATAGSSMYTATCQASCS

SMILES	EC50
Cc1cc(-n2nc3c(c2-n2ccn(-c4ccc5c(cnn5C)c4F)c2=O)[C@@H]2CCC[C@H](C3)N2C(=O)c2cc3cc([C@H]4CCOC5(CC5)C4)ccc3n2[C@@]2(c3noc(=O)[nH]3)C[C@@H]2C)cc(C)c1F [Compound 509, 3-((1S,2S)-1-(2-((4S,8R)-3-(3-(4-fluoro-1-methyl-1H-indazol-5-yl)-2-oxo-2,3-dihydro-1H-imidazol-1-yl)-2-(4-fluoro-3,5-dimethylphenyl)-4,5,6,7,8,9-hexahydro-2H-4,8-epiminocycloocta [c]pyrazole-10-carbonyl)-5-((S)-4-oxaspiro[2.5]octan-7-yl)-1H-indol-1-yl)-2-methylcyclopropyl)-1,2,4-oxadiazol-5 (4H)-one]	134 nM
Cc1cc(-n2nc3c(c2-n2ccn(-c4ccc5c(cnn5C)c4F)c2=O)[C@@H]2CC[C@H](C3)N2C(=O)c2cc3cc([C@H]4CCOC(C)(C)C4)cnc3n2[C@@]2(c3noc(=O)[nH]3)C[C@@H]2C)cc(C)c1F [Compound 313, 3-((1S,2S)-1-(5-((S)-2,2-dimethyltetrahydro-2H-pyran-4-yl)-2-((4S,7R)-3-(3-(4-fluoro-1-methyl-1H-indazol-5-yl)-2-oxo-2,3-dihydro-1H-imidazol-1-yl)-2-(4-fluoro-3,5-dimethylphenyl)-2,4,5,6,7,8-hexahydro-4,7-epiminocyclohepta [c]pyrazole-9-carbonyl)-1H-pyrrolo[2,3-b]pyridin-1-yl)-2-methylcyclopropyl)-1,2,4-oxadiazol-5 (4H)-one]	18.7 nM
Cc1cc(-n2nc3c(c2-c2nc(-c4ccc5c(cnn5C)c4F)cn2C)[C@H](C)N(C(=O)c2cc4cc([C@H]5CCOC(C)(C)C5)ccc4n2[C@@]2(c4noc(=O)[nH]4)C[C@@H]2C)CC3)cc(C)c1F [Compound 21, 3-((1S,2S)-1-(5-((S)-2,2-dimethyltetrahydro-2H-pyran-4-yl)-2-((S)-3-(4-(4-fluoro-1-methyl-1H-indazol-5-yl)-1-methyl-1H-imidazol-2-yl)-2-(4-fluoro-3,5-dimethylphenyl)-4-methyl-4,5,6,7-tetrahydro-2H-pyrazolo[4,3-c]pyridine-5-carbonyl)-1H-indol-1-yl)-2-methylcyclopropyl)-1,2,4-oxadiazol-5 (4H)-one]	591 nM
Cc1cc(-n2nc3c(c2-n2ccn(-c4ccc5c(cnn5C)c4F)c2=O)[C@@H]2CCC[C@H](C3)N2S(=O)(=O)c2cc3cc(C4CCOCC4)ccc3n2[C@]2(c3noc(=O)[nH]3)C[C@@H]2C)cc(C)c1F [Compound 534, 3-[(1R,2S)-1-[2-[[(1S,8R)-4-(4-fluoro-3,5-dimethyl-phenyl)-3-[3-(4-fluoro-1-methyl-indazol-5-yl)-2-oxo-imidazol-1-yl]-4,5,12-triazatricyclo[6.3.1.02,6]dodeca-2,5-dien-12-yl]sulfonyl]-5-tetrahydropyran-4-yl-indol-1-yl]-2-methyl-cyclopropyl]-4H-1,2,4-oxadiazol-5-one]	≥ 10000 nM
Cc1cc(-n2nc3c(c2-n2ccn(-c4ccc5c(cnn5C)c4F)c2=O)C2CCC(CC3)N2C(=O)c2cc3cc([C@H]4CCOC(C)(C)C4)ccc3n2[C@@]2(c3noc(=O)[nH]3)C[C@@H]2C)cc(C)c1F (stereo partly drawn) [Compound 522, 3-[(1S,2S)-1-[5-[(4S)-2,2-dimethyltetrahydropyran-4-yl]-2-[4-(4-fluoro-3,5-dimethyl-phenyl)-3-[3-(4-fluoro-1-methyl-indazol-5-yl)-2-oxo-imidazol-1-yl]-4,5,12-triazatricyclo[7.2.1.02,6]dodeca-2,5-diene-12-carbonyl]indol-1-yl]-2-methyl-cyclopropyl]-4H-1,2,4-oxadiazol-5-one]	≥ 10000 nM
Cc1cc(-n2nc3c(c2-n2ccn(-c4ccc5c(cnn5C)c4F)c2=O)[C@H]2CC[C@@H](C3)N2C(=O)c2cc3cc([C@H]4CCOC5(CC5)C4)ccc3n2[C@@]2(c3noc(=O)[nH]3)C[C@H]2C)cc(C)c1F [Compound 539, 3-((1S,2R)-1-(2-((4R,7S)-3-(3-(4-fluoro-1-methyl-1H-indazol-5-yl)-2-oxo-2,3-dihydro-1H-imidazol-1-yl)-2-(4-fluoro-3,5-dimethylphenyl)-2,4,5,6,7,8-hexahydro-4,7-epiminocyclohepta [c]pyrazole-9-carbonyl)-5-((S)-4-oxaspiro[2.5]octan-7-yl)-1H-indol-1-yl)-2-methylcyclopropyl)-1,2,4-oxadiazol-5 (4H)-one]	≥ 10000 nM
Cc1cc(-n2nc3c(c2-n2ccn(-c4ccc5c(cnn5C)c4F)c2=O)[C@H]2CC[C@@H](C3)N2C(=O)c2cc3cc([C@H]4CCOC5(CC5)C4)ccc3n2[C@]2(c3noc(=O)[nH]3)C[C@H]2C)cc(C)c1F [Compound 520, 3-[(1R,2R)-1-[2-[(1R,8S)-4-(4-fluoro-3,5-dimethyl-phenyl)-3-[3-(4-fluoro-1-methyl-indazol-5-yl)-2-oxo-imidazol-1-yl]-4,5,11-triazatricyclo[6.2.1.02,6]undeca-2,5-diene-11-carbonyl]-5-[(7S)-4-oxaspiro[2.5]octan-7-yl]indol-1-yl]-2-methyl-cyclopropyl]-4H-1,2,4-oxadiazol-5-one]	≥ 10000 nM
Cc1cc(-n2nc3c(c2-c2ncn(-c4ccc5c(cnn5C)c4F)c2C)[C@H](C)N(C(=O)c2cc4cc([C@H]5CCOC(C)(C)C5)ccc4n2[C@@]2(c4noc(=O)[nH]4)C[C@@H]2C)CC3)cc(C)c1F [Compound 15, 3-((1S,2S)-1-(5-((S)-2,2-dimethyltetrahydro-2H-pyran-4-yl)-2-((S)-3-(1-(4-fluoro-1-methyl-1H-indazol-5-yl)-5-methyl-1H-imidazol-4-yl)-2-(4-fluoro-3,5-dimethylphenyl)-4-methyl-4,5,6,7-tetrahydro-2H-pyrazolo[4,3-c]pyridine-5-carbonyl)-1H-indol-1-yl)-2-methylcyclopropyl)-1,2,4-oxadiazol-5 (4H)-one]	584 nM

molecular target: T1, human GLP-1R; assay: GLP-1R cAMP assay (Example B1b, HTRF, 30 min at 37°); format: cell-based; conditions: cAMP accumulation in HEK293 expressing human GLP-1R, no BETP, 30 min at 37° (Method B1b), Table 1
Experimental: Assay was carried out with HEK293 expressing human GLP-1R using HTRF assay, developed by Wuxi Apptec. The method is a competitive assay between native cAMP produced by the cells and exogenous cAMP labeled with a proprietary dye d2. The tracer binding is visualized by a mAb anti-cAMP labeled with Cryptate. The signal (i.e. energy transfer) is inversely proportional to the concentration of CAMP in either standard or experimental sample. Compounds were tested in the absence of BETP. Ten microliter of cell suspension in assay buffer (5 mM HEPES, 500 μM IBMX, 0.1% BSA) were added to each well (1,000 cells per well) in a low volume 384-well plate for the assay. Serially diluted compounds were added in 100 nL volume to duplicate wells, by Labcyte Echo. GLP-1 (7-37) was used as positive control. Assay plate was incubated for 30 minutes at 37°. Stock of cAMP Detection Solution was prepared by mixing 38 parts of cAMP lysis buffer, 1 part of cAMP-D2, 1 part of anti-cAMP cryptate reagent (Cisbio #62AM4PEJ). Ten microliter of the cAMP Detection Solution was added to each well, and the assay plate was incubated for 1 hour at room temperature in the dark. Plates were read on Envision plate reader. The data were analyzed by ScreenUltra in Dotmatics, with % activation expressed using following formula: (Signal ratio […]*10000−negative control)/(postive control−negative control)*100. Dose response curves were plotted and EC50 values calculated by non-linear regression using 4-parameter fit. The potency (EC50) values for cAMP accumulation in HEK293 cells are reported in the Table 1 below (for compounds ID 610-708).

SMILES	EC50
Cc1cc(-n2nc3c(c2-n2ccn(-c4ccc5c(cnn5C)c4F)c2=O)[C@@H]2CC[C@H](C3)N2C(=O)c2cc3cc(C4CCOC(C)(C)C4)c(F)cc3n2[C@@]2(c3noc(=O)[nH]3)C[C@@H]2C)cc(C)c1F (stereo partly drawn) [Compound 716, 3-[(1S,2S)-1-[5-(2,2-dimethyltetrahydropyran-4-yl)-6-fluoro-2-[(1S,8R)-4-(4-fluoro-3,5-dimethyl-phenyl)-3-[3-(4-fluoro-1-methyl-indazol-5-yl)-2-oxo-imidazol-1-yl]-4,5,11-triazatricyclo[6.2.1.02,6]undeca-2,5-diene-11-carbonyl]indol-1-yl]-2-methyl-cyclopropyl]-4H-1,2,4-oxadiazol-5-one]	0.005 µM
Cc1cc(-n2nc3c(c2-n2ccn(-c4ccc5c(c4)N(C)C(=O)C5=O)c2=O)[C@@H]2CCC[C@H](C3)N2C(=O)c2cc3cc([C@H]4CCOC(C)(C)C4)ccc3n2[C@@]2(c3noc(=O)[nH]3)C[C@@H]2C)cc(C)c1F [Compound 710, 6-(3-((4S,8R)-10-(5-((S)-2,2-dimethyltetrahydro-2H-pyran-4-yl)-1-((1S,2S)-2-methyl-1-(5-oxo-4,5-dihydro-1,2,4-oxadiazol-3-yl)cyclopropyl)-1H-indole-2-carbonyl)-2-(4-fluoro-3,5-dimethylphenyl)-4,5,6,7,8,9-hexahydro-2H-4,8-epiminocycloocta [c]pyrazol-3-yl)-2-oxo-2,3-dihydro-1H-imidazol-1-yl)-1-methylindoline-2,3-dione]	0.004 µM
Cc1cc(-n2nc3c(c2-n2ccn(-c4ccc5c(cnn5C5CC5)c4F)c2=O)[C@@H]2COC[C@H](C3)N2C(=O)c2cc3cc(C4CCOCC4)ccc3n2[C@@]2(c3noc(=O)[nH]3)C[C@@H]2C)cc(C)c1F [Compound 715, 3-((1S,2S)-1-(2-((4R,8S)-3-(3-(1-cyclopropyl-4-fluoro-1H-indazol-5-yl)-2-oxo-2,3-dihydro-1H-imidazol-1-yl)-2-(4-fluoro-3,5-dimethylphenyl)-2,4,5,7,8,9-hexahydro-4,8-epiminooxocino [5,4-c]pyrazole-10-carbonyl)-5-(tetrahydro-2H-pyran-4-yl)-1H-indol-1-yl)-2-methylcyclopropyl)-1,2,4-oxadiazol-5 (4H)-one]	0.004 µM
Cc1cc(-n2nc3c(c2-n2ccn(-c4ccc5ccncc5c4F)c2=O)[C@@H]2CCC[C@H](C3)N2C(=O)c2cc3cc([C@H]4CCOC5(CC5)C4)ccc3n2[C@@]2(c3noc(=O)[nH]3)C[C@@H]2C)cc(C)c1F [Compound 610, 3-((1S,2S)-1-(2-((4S,8R)-2-(4-fluoro-3,5-dimethylphenyl)-3-(3-(8-fluoroisoquinolin-7-yl)-2-oxo-2,3-dihydro-1H-imidazol-1-yl)-4,5,6,7,8,9-hexahydro-2H-4,8-epiminocycloocta [c]pyrazole-10-carbonyl)-5-((S)-4-oxaspiro[2.5]octan-7-yl)-1H-indol-1-yl)-2-methylcyclopropyl)-1,2,4-oxadiazol-5 (4H)-one]	0.0008 µM
